“Also recorded” adds a separate entry of the source. Bounds are passed on as bounds.

Consider 15 compounds from patent US7939559B2, “Lipase inhibitors” (Suntory Holdings Limited, priority 2004, dated 2011).

This assay has as its target T1, porcine pancreatic lipase (Sus scrofa, UniProt P00591).
T1 construct: purchased Sigma
T1 sequence (P00591 1-450): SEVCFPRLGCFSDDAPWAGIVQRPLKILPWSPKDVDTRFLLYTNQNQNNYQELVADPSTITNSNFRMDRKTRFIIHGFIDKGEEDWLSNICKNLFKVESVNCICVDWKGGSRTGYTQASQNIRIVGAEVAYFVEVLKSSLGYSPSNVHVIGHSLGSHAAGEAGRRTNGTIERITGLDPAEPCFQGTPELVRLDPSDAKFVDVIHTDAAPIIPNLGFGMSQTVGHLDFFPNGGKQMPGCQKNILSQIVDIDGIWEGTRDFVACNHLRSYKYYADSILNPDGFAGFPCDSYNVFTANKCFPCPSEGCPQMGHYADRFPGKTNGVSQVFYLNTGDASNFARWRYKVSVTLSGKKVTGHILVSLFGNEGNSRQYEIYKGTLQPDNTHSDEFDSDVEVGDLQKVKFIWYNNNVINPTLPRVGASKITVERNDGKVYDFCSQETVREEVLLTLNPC
Briefly: Lipase inhibitory activity assay (4-MUO fluorescent substrate). The class given is biochemical. To be noted: for IC50 / lipase inhibitory activity (in words): porcine pancreatic lipase; for IC50: substrate 4-MUO, 25° C., 30 minutes, pH 8.0; for lipase inhibitory activity (in words): 4-MUO, comparison among major tea catechins. The procedure:
A lipase activity assay was performed by using the oleate ester of fluorescent 4-methylumbelliferone (4-MUO) as a substrate to measure the fluorescence of 4-methylumbelliferone produced by reaction.
The buffer used for the assay was 13 mM Tris-HCl (pH 8.0) containing 150 mM NaCl, 1.36 mM CaCl2. The enzyme assay was performed using a 0.1 M solution of the substrate 4-MUO (Sigma) in DMSO diluted 1:1000 in said buffer and a solution of porcine pancreatic lipase (Sigma) prepared at 400 U/ml also in said buffer.
An enzymatic reaction was started by adding 25 μl of the lipase/buffer solution after 50 μl of the 4-MUO/buffer solution and 25 μl of distilled water (or an aqueous solution of each sample) were added and mixed in a 96-well microplate at 25° C. After the reaction was performed for 30 minutes, the reaction was stopped by adding 100 μl of a 0.1 M citrate buffer (pH 4.2) and the fluorescence of 4-methylumbelliferone produced by the reaction (excitation 355 nm, emission 460 nm) was measured using a fluorescence plate reader (Fluoroskan Asent CF from Labsystems).
The inhibitory activity of each test sample was determined as IC50(μM), i.e. the amount of the sample giving 50% inhibition of the activity of the control (distilled water).

As a reminder, the IC50 is the concentration that inhibits the measured activity by half. High values mean a need for much substance, low ones inhibition by little substance. `O=C(O[C@@H]1Cc2c(O)cc3c(c2O[C@@H]1c1cc(O)c(O)c(O)c1)C1(O)C(=O)O[C@H]([C@@H](O)CO)C1(O)O3)c1cc(O)c(O)c(O)c1` (stereo partly drawn) [compound 15, 8-C-ascorbyl(−)-epigallocatechin 3-O-gallate] registered an IC50 of 791 nM.
For `O=C(Oc1cc(O)cc2c1C[C@H](OC(=O)c1cc(O)c(O)c(O)c1)[C@@H](c1cc(O)c(O)c(O)c1)O2)c1cc(O)c(O)c(O)c1` [compound 13, (−)-gallocatechin 3,5-di-O-gallate], 213 nM corresponded to half-maximal inhibition (IC50). For the same compound, the “lipase inhibitory activity relative to GCG (12)” value (fold higher activity than (−)-gallocatechin 3-O-gallate) is given as “about twice higher”.
`O=C(O[C@@H]1Cc2c(O)cc(O)cc2O[C@H]1c1cc(O)c(O)c(O)c1)c1cc(O)c(O)c(O)c1` [compound 12, (−)-gallocatechin 3-O-gallate]: the “lipase inhibitory activity (in words)” value is recorded as “showed lipase inhibitory activity” and half-maximal inhibition (IC50) required 437 nM.
`Oc1cc(O)c2c(c1)O[C@H](c1cc(O)c(O)c(O)c1)[C@@H](O)C2` [compound 11, (+)-gallocatechin]: the IC50 was > 20000 nM.
In turn, `O=C1O[C@H]([C@@H](O)CO)C2(O)Oc3cc(O)c4c(c3C12O)O[C@H](c1cc(O)c(O)c(O)c1)[C@H](O)C4` (stereo partly drawn) [compound 14, 8-C-ascorbyl(−)-epigallocatechin] had an IC50 of 646 nM.
Same read-out and setting: as for `Oc1cc(O)c2c(c1)O[C@H](c1cc(O)c(O)c(O)c1)[C@H](O)C2` [compound 5, (−)-epigallocatechin], the figure is > 20000 nM.
Still for that read-out and setting: as for “(−)-epiafzelechin 3-O-gallate [compound 1]”, the figure is 2580 nM.
As to `O=C(O[C@@H]1Cc2c(O)cc(O)cc2O[C@H]1c1ccc(O)c(O)c1)c1cc(O)c(O)c(O)c1` [compound 10, (−)-catechin 3-O-gallate], the “lipase inhibitory activity (in words)” value was “showed lipase inhibitory activity” and the half-inhibitory concentration (IC50) is 543 nM.
`COc1cc(C(=O)O[C@@H]2Cc3c(O)cc(O)cc3O[C@@H]2c2ccc(O)c(O)c2)cc(O)c1O` [compound 4, (−)-epicatechin 3-O-(3′-O-methyl-gallate)] came in with an IC50 of 680 nM.
On to “(−)-epicatechin 3-O-gallate [compound 3]”, for which the “lipase inhibitory activity (in words)” value is recorded as “showed lipase inhibitory activity” and the IC50 amounted to 452 nM.
For the compound `O=C(O[C@@H]1Cc2c(O)cc(O)cc2O[C@@H]1c1cc(O)c(O)c(O)c1)c1cc(O)c(O)c(O)c1` [compound 6, (−)-epigallocatechin 3-O-gallate], the “lipase inhibitory activity (in words)” value is recorded as “showed lipase inhibitory activity; also recorded: showed the strongest activity among these catechins” and half-maximal inhibition (IC50) required 349 nM.
Turning to `Oc1cc(O)c2c(c1)O[C@H](c1ccc(O)c(O)c1)[C@H](O)C2` [compound 2, (−)-epicatechin], the IC50 was > 20000 nM.
Regarding `Oc1cc(O)c2c(c1)O[C@H](c1ccc(O)c(O)c1)[C@@H](O)C2` [compound 9, (+)-catechin], the “lipase inhibitory activity (in words)” value is listed as “did not show lipase inhibitory activity” and the IC50 is > 20000 nM.
For the compound `O=C(/C=C/c1ccc(O)cc1)O[C@@H]1Cc2c(O)cc(O)cc2O[C@@H]1c1cc(O)c(O)c(O)c1` [compound 8, (−)-epigallocatechin 3-O-p-coumaroate], inhibition was half-maximal at 885 nM (IC50).
In turn, `O=C(Oc1cc(O)cc2c1C[C@@H](OC(=O)c1cc(O)c(O)c(O)c1)[C@@H](c1cc(O)c(O)c(O)c1)O2)c1cc(O)c(O)c(O)c1` [compound 7, (−)-epigallocatechin 3,5-di-O-gallate] showed an IC50 of 98 nM. In addition, the “lipase inhibitory activity relative to EGCG (6)” value (fold higher activity than (−)-epigallocatechin 3-O-gallate) is “about 3.5 times”.
